Patent US11160886B2, “Method for labeling of sensitive and thermosensitive targeting biomolecules with technetium based compounds” (BRACCO IMAGING SPA, priority 2016, dated 2021)

Legend:
[1] = Stability in the reaction solution as function of pH (FIG. 5); assay type: physicochemical
Description: The variation of (%)RCY of complex 1 and complex 2 over the time (30 min vs 18 h), at different conditions, is shown in FIG. 5. […] Alternatively, free PNP3OH was directly used.

[2] = Sera and homogenates stability; assay type: in vitro ADME, human and rat; details: human and rat sera, 37° C., 3 h
Description: Sera and Homogenates Stability.
The in vitro stability of complex 1, complex 2, complex 9 and complex 11 was evaluated by monitoring the RCP at different time points using the following procedures. In a propylene test tube 50 μl of purified [^99mTc(N)(PNP3OH)]-compound were added to: a) 450 μl of human serum, b) 450 μl of rat serum, c) 450 μl of homogenate of rat liver and d) 450 μl of homogenate of rat kidneys. The resulting mixture was incubated at 37° C. for 4 h.
The sample was loaded onto a cartridge, preconditioned with MeOH (1 ml) and equilibrated with water (1 ml), and rinsed with MeOH 5% (3 ml). The activity was eluted with a mixture of EtOH/saline 60% (1 ml). Each fraction was collected and the activity measured using a counter (Cobra II, Packard) to determinate the elution profile. 80% of the loaded activity was collected in the elution fraction. An aliquot of this solution (100 μl) was analyzed by HPLC to assess the degradation of the ^99mTc(N)-complexes (FIG. 11).

[3] = Biodistribution in healthy rats; assay type: in vivo, Sprague-Dawley rats; details: for Biodistribution: Blood / Biodistribution: Brain / Biodistribution: Heart / Biodistribution: Intestine / Biodistribution: Kidneys / Biodistribution: Liver / Biodistribution: Lungs / Biodistribution: Muscle / Biodistribution: Spleen / Biodistribution: Stomach / Biodistribution: Urine: healthy rats
Description: Before injection, ^99mTc complexes were purified using a reversed-phase C18 Sep-Pack cartridge to remove the excess of unlabeled ligands. After purification, the activity recovered was further diluted with PBS to obtain a final solution that is <0.5% in EtOH content. The RCP and the stability of the purified complexes were evaluated prior to in vivo administration and for the succeeding 18 h.
Biodistribution in healthy rats. Biodistribution in healthy rats was performed on complex 1, complex 2 and complex 9 in order to evaluate their pharmacokinetic profile and elimination pathways as well as their resistance to in vivo metabolism. Female Sprague-Dawley rats weighing 180-200 g were anesthetized with an intramuscular injection of a mixture of Zoletil (40 mg/kg) and xylazine (2 mg/kg). A jugular vein was surgically exposed and 100 μl (300-370 kBq) of the solution containing the selected [^99mTc(N)(PNP3OH)]-compound was injected. The rats (n=3) were scarified by cervical dislocation at different times after injection. The blood was withdrawn from the heart with a syringe immediately after death and quantified. Organs were excised, rinsed in saline, weighed, and the activity was counted in a Nal well counter.

## CC(=O)NC1C[S][99Tc](#[N])[O]C1=O.COCCN(CCP(CO)CO)CCP(CO)CO [Complex 1, [^99mTc(N)(PNP3OH)(CysNAc)]]
[1]; pH 7.4
  Stability in the reaction solution: stable within 18 h
[1]; pH 9
  Stability in the reaction solution: a progressive degradation was observed
[2]
  Sera stability: high sera stability
[3]; healthy animals, within the first 60 min p.i.
  Pharmacokinetic profile: blood clearance: rapid blood clearance
[3]; 2 min
  Biodistribution: Blood: 1.68 ± 0.02 % IA/g
  Biodistribution: Brain: 0.10 ± 0.01 % IA/g
  Biodistribution: Heart: 0.54 ± 0.09 % IA/g
  Biodistribution: Intestine: 0.70 ± 0.02 % IA/g
  Biodistribution: Kidneys: 4.73 ± 0.37 % IA/g
  Biodistribution: Liver: 1.73 ± 0.02 % IA/g
  Biodistribution: Lungs: 1.11 ± 0.22 % IA/g
  Biodistribution: Muscle: 0.32 ± 0.02 % IA/g
  Biodistribution: Spleen: 0.40 ± 0.07 % IA/g
  Biodistribution: Stomach: 0.39 ± 0.05 % IA/g
[3]; 10 min
  Biodistribution: Blood: 0.96 ± 0.03 % IA/g
  Biodistribution: Brain: 0.05 ± 0.01 % IA/g
  Biodistribution: Heart: 0.27 ± 0.01 % IA/g
  Biodistribution: Intestine: 2.85 ± 0.67 % IA/g
  Biodistribution: Kidneys: 4.07 ± 0.67 % IA/g
  Biodistribution: Liver: 2.27 ± 0.01 % IA/g
  Biodistribution: Lungs: 0.68 ± 0.03 % IA/g
  Biodistribution: Muscle: 0.14 ± 0.01 % IA/g
  Biodistribution: Spleen: 0.26 ± 0.00 % IA/g
  Biodistribution: Stomach: 0.41 ± 0.09 % IA/g
  Biodistribution: Urine: 31.28 ± 4.07 % IA/g
[3]; 30 min
  Biodistribution: Blood: 0.43 ± 0.09 % IA/g
  Biodistribution: Brain: 0.04 ± 0.01 % IA/g
  Biodistribution: Heart: 0.17 ± 0.07 % IA/g
  Biodistribution: Intestine: 5.46 ± 3.28 % IA/g
  Biodistribution: Kidneys: 2.47 ± 0.04 % IA/g
  Biodistribution: Liver: 1.28 ± 0.03 % IA/g
  Biodistribution: Lungs: 0.38 ± 0.15 % IA/g
  Biodistribution: Muscle: 0.11 ± 0.00 % IA/g
  Biodistribution: Spleen: 0.10 ± 0.01 % IA/g
  Biodistribution: Stomach: 0.35 ± 0.02 % IA/g
[3]; 60 min
  Biodistribution: Blood: 0.11 ± 0.00 % IA/g
  Biodistribution: Brain: 0.01 ± 0.00 % IA/g
  Biodistribution: Heart: 0.06 ± 0.01 % IA/g
  Biodistribution: Intestine: 10.07 ± 0.26 % IA/g
  Biodistribution: Kidneys: 1.15 ± 0.12 % IA/g
  Biodistribution: Liver: 0.99 ± 0.13 % IA/g
  Biodistribution: Lungs: 0.14 ± 0.01 % IA/g
  Biodistribution: Muscle: 0.08 ± 0.03 % IA/g
  Biodistribution: Spleen: 0.10 ± 0.01 % IA/g
  Biodistribution: Stomach: 0.24 ± 0.12 % IA/g
  Biodistribution: Urine: 58.89 ± 2.27 % IA/g
[3]; 120 min
  Biodistribution: Blood: 0.06 ± 0.01 % IA/g
  Biodistribution: Brain: 0.01 ± 0.00 % IA/g
  Biodistribution: Heart: 0.02 ± 0.00 % IA/g
  Biodistribution: Intestine: 0.57 ± 0.05 % IA/g
  Biodistribution: Kidneys: 0.77 ± 0.26 % IA/g
  Biodistribution: Liver: 0.54 ± 0.05 % IA/g
  Biodistribution: Lungs: 0.10 ± 0.01 % IA/g
  Biodistribution: Muscle: 0.02 ± 0.00 % IA/g
  Biodistribution: Spleen: 0.09 ± 0.01 % IA/g
  Biodistribution: Stomach: 0.25 ± 0.06 % IA/g
  Biodistribution: Urine: 55.74 ± 14.87 % IA/g
